{"source": "patent US20180272270A1", "about": "“AMINE COMPOUNDS FOR SELECTIVELY REMOVING HYDROGEN SULPHIDE” (BASF SE, priority 2015, published 2018)", "test": "Dynamic viscosity of the amines (Anton Paar Stabinger SVM3000 viscometer)", "type": "physicochemical"}
{"smiles": "CC(C)(C)NCCOCCO", "note": "[TBAEE, 2-(2-tert-butylaminoethoxy)ethanol, reference compound]", "values": [{"measurement": "Dynamic viscosity", "setting": "20 ° C.", "result": 58.4, "unit": "mPa · s"}, {"measurement": "Dynamic viscosity", "setting": "60 ° C.", "result": 6.9, "unit": "mPa · s"}, {"measurement": "Dynamic viscosity", "setting": "80 ° C.", "result": 3.6, "unit": "mPa · s"}]}
{"smiles": "CN(C)CCOCCNC(C)(C)C", "note": "[TBAEEDA, 2-(2-tert-butylaminoethoxy)ethyl-N,N-dimethylamine]", "values": [{"measurement": "Dynamic viscosity", "setting": "20 ° C.", "result": 5.4, "unit": "mPa · s"}, {"measurement": "Dynamic viscosity", "setting": "40 ° C.", "result": 2.5, "unit": "mPa · s"}, {"measurement": "Dynamic viscosity", "setting": "60 ° C.", "result": 1.6, "unit": "mPa · s"}, {"measurement": "Dynamic viscosity", "setting": "80 ° C.", "result": 1.1, "unit": "mPa · s"}]}
